Assays:
60 cancer cell lines = assay: NCI-60 one-dose screen (10 μM); type: cell-based; details: Homo sapiens; one dose of 10 μM, mean over 60 cancer cell lines; read-out: Mean Growth Percent (MGP)
From the text: Additionally, the mean of the growth percentages (MGP) of each compound against all the 60 cancer cell lines is also reported, which is used as one of the selection criteria to continue with tests at five concentration doses.

[1] = Hemolytic activity, spectrophotometric; type: cell-based, human; details: human, human red blood cells (huRBC), 5% hematocrit, 200 μg/mL, 37 °C
CCRF-CEM = assay: cells; details: Homo sapiens, 48 h
HL-60(TB) = assay: cells; details: Homo sapiens, HL-60, 48 h
MOLT-4 = assay: cells; details: Homo sapiens, MOLT-4, 48 h
RPMI-8226 = assay: cells; details: Homo sapiens, RPMI-8226, 48 h
EKVX = assay: cells; details: Homo sapiens, 48 h
HOP-62 = assay: cells; details: Homo sapiens, HOP-62, 48 h
NCI-H226 = assay: cells; details: Homo sapiens, NCI-H226, 48 h
NCI-H322M = assay: cells; details: Homo sapiens, 48 h
COLO 205 = assay: cells; details: Homo sapiens, COLO 205, 48 h
HCT-116 = assay: cells; details: Homo sapiens, HCT-116, 48 h
HT29 = assay: cells; details: Homo sapiens, HT-29, 48 h
SF-268 = assay: cells; details: Homo sapiens, SF-268, 48 h
SF-295 = assay: cells; details: Homo sapiens, SF-295, 48 h, read-out: LC50
SF-539 = assay: cells; details: Homo sapiens, SF-539, 48 h
U251 = assay: cells; details: Homo sapiens, U-251, 48 h, U251, 48 h
LOX IMVI = assay: cells; details: Homo sapiens, 48 h
MALME-3M = assay: cells; details: Homo sapiens, 48 h
M14 = assay: cells; details: Homo sapiens, M14, 48 h
MDA-MB-435 = assay: cells; details: Homo sapiens, MDA-MB-435, 48 h
UACC-257 = assay: cells; details: Homo sapiens, UACC-257, 48 h
UACC-62 = assay: cells; details: Homo sapiens, UACC-62, 48 h
OVCAR-3 = assay: cells; details: Homo sapiens, OVCAR-3, 48 h
OVCAR-4 = assay: cells; details: Homo sapiens, OVCAR-4, 48 h
OVCAR-5 = assay: cells; details: Homo sapiens, OVCAR-5, 48 h
OVCAR-8 = assay: cells; details: Homo sapiens, OVCAR-8, 48 h
A498 = assay: cells; details: Homo sapiens, A498, 48 h
ACHN = assay: cells; details: Homo sapiens, 48 h
SN12C = assay: cells; details: Homo sapiens, 48 h
UO-31 = assay: cells; details: Homo sapiens, UO-31, 48 h
PC-3 = assay: cells; details: Homo sapiens, PC-3, 48 h
DU-145 = assay: cells; details: Homo sapiens, DU-145, 48 h
MCF7 = assay: cells; details: Homo sapiens, MCF7, 48 h
MDA-MB-231/ATCC = assay: cells; details: Homo sapiens, MDA-MB-231, 48 h
HS 578T = assay: cells; details: Homo sapiens, 48 h
BT-549 = assay: cells; details: Homo sapiens, BT-549, 48 h
T-47D = assay: cells; details: Homo sapiens, T47D, 48 h

In the case of `COc1cc(/C=C/C(=O)c2ccc(C)cc2)ccc1Oc1nc(NCCO)nc(N2CCOCC2)n1` [20b], the activity at 10 µM (60 cancer cell lines) is reported as 48.9%, the hemolysis at 24 h, 200 µg/mL [1] is reported as 3.3% and the GI50 (CCRF-CEM) is reported as 2.71 µM. It also gave a CC50 (CCRF-CEM; read-out: LC50) of over 100 µM, a GI50 (HL-60(TB)) of 2.07 µM and a CC50 (HL-60(TB); read-out: LC50) of over 100 µM. The GI50 (MOLT-4) was 2.09 µM, the CC50 (MOLT-4; read-out: LC50) was over 100 µM and the GI50 (RPMI-8226) was 1.72 µM. It also gave a CC50 (RPMI-8226; read-out: LC50) of over 100 µM, a GI50 (EKVX) of 3.9 µM and a CC50 (EKVX; read-out: LC50) of over 100 µM. For the same molecule, the GI50 (HOP-62) was 16.6 µM, the CC50 (HOP-62; read-out: LC50) was over 100 µM and the GI50 (NCI-H226) was 6.28 µM. The CC50 (NCI-H226; read-out: LC50) was over 100 µM, the GI50 (NCI-H322M) was 6.24 µM and the CC50 (NCI-H322M; read-out: LC50) was over 100 µM. It also gave a GI50 (COLO 205) of 2.64 µM, a CC50 (COLO 205; read-out: LC50) of over 100 µM and a GI50 (HCT-116) of 1.73 µM. For the same molecule, the GI50 (HT29) was 1.85 µM, the GI50 (SF-268) was 2.9 µM and the CC50 (SF-268; read-out: LC50) was over 100 µM. It also gave a CC50 (SF-295) of over 100 µM, a GI50 (SF-539) of 1.88 µM and a GI50 (U251) of 1.62 µM. For the same molecule, the GI50 (LOX IMVI) was 0.43 µM, the CC50 (LOX IMVI; read-out: LC50, LOX IMVI, 48 h) was 4.09 µM and the GI50 (MALME-3M) was 2.29 µM. For the same molecule, the CC50 (MALME-3M; read-out: LC50) was over 100 µM, the GI50 (M14) was 2.03 µM and the CC50 (M14; read-out: LC50) was over 100 µM. For the same molecule, the GI50 (MDA-MB-435) was 3.31 µM, the CC50 (MDA-MB-435; read-out: LC50) was over 100 µM and the GI50 (UACC-257) was 3.98 µM. The CC50 (UACC-257; read-out: LC50) was over 100 µM, the GI50 (UACC-62) was 2.01 µM and the GI50 (OVCAR-3) was 2.49 µM. For the same molecule, the CC50 (OVCAR-3; read-out: LC50) was over 100 µM, the GI50 (OVCAR-4) was 3.92 µM and the CC50 (OVCAR-4; read-out: LC50) was over 100 µM. For the same molecule, the GI50 (OVCAR-5) was 3.22 µM, the CC50 (OVCAR-5; read-out: LC50) was over 100 µM and the GI50 (OVCAR-8) was 1.76 µM. It also gave a GI50 (A498) of over 100 µM, a CC50 (A498; read-out: LC50) of over 100 µM and a GI50 (ACHN) of 1.94 µM. The GI50 (SN12C) was 2.35 µM, the CC50 (SN12C; read-out: LC50) was over 100 µM and the GI50 (UO-31) was 1.49 µM. It also gave a GI50 (PC-3) of 2.53 µM, a CC50 (PC-3; read-out: LC50) of over 100 µM and a GI50 (DU-145) of 3.79 µM. The CC50 (DU-145; read-out: LC50) was over 100 µM, the GI50 (MCF7) was 1.5 µM and the CC50 (MCF7; read-out: LC50) was over 100 µM. It also gave a GI50 (MDA-MB-231/ATCC) of 2.98 µM, a CC50 (MDA-MB-231/ATCC; read-out: LC50) of over 100 µM and a GI50 (HS 578T) of 4.6 µM. For the same molecule, the CC50 (HS 578T; read-out: LC50) was over 100 µM, the GI50 (BT-549) was 1.62 µM and the GI50 (T-47D) was 2.98 µM. The CC50 (T-47D; read-out: LC50) was over 100 µM.

From PMC11012124, “Synthesis of Novel Triazine-Based Chalcones and 8,9-dihydro-7H-pyrimido[4,5-b][1,4]diazepines as Potential Leads in the Search of Anticancer, Antibacterial and Antifungal Agents” (International Journal of Molecular Sciences, 2024)
